Measured values: publication PMC6274005, “Interaction of Di-2-pyridylketone 2-pyridine Carboxylic Acid Hydrazone and Its Copper Complex with BSA: Effect on Antitumor Activity as Revealed by Spectroscopic Studies” (Molecules, 2016)

How the values were obtained:
[1] = biological target: T1, BSA (Bos taurus, UniProt P02769); assay: Fluorescence resonance energy transfer (FRET) between BSA and bound agent; type: binding, bovine; conditions: for r (distance from bound agent to Trp-213 residue of BSA): FRET; for R0 (critical distance at 50% energy transfer efficiency): K^2 = 2/3, N = 1.336, ф = 0.15
Method: Further, the distance R between the two Trp residues in BSA and the bound DPPCAH (DPPCAH-Cu) was determined using the fluorescence resonance energy transfer (FRET) method. Generally, FRET occurs whenever the emission spectrum of a fluorophore (donor) overlaps with the absorption spectrum of the bound molecule (acceptor). The efficiency of energy transfer could be used to evaluate the distance between the drug and the Trp213 residue in BSA. The relationship between the distance and efficiency of FRET is described by the following equation: (4) E=1−F/F0=R06/R06+r^6 where, r is the distance between acceptor and donor and, R0 is the critical distance when the energy transfer efficiency is 50%. The value of R0 is calculated using the following equation: (5) R=8.8×10^−25 K^2 N^−4ΦJ where, K^2 is the relative orientation of the transition dipoles of donor and acceptor (K^2 = 2/3 for a random orientation); N is the average refractive index of the medium (N = 1.336); ф is the fluorescence quantum yield of donor (ф = 0.15); J is a factor describing the spectral overlap between the emission spectrum of donor and the absorption spectrum of acceptor. J is calculated using the following equation: (6) J=∑F(λ)ε(λ)λ^4Δλ/∑F(λ)Δλ where, λ is wavelength. To calculate the distance (r), E and J value are required. These values are derived from the fluorescence data and overlapped area between the emission spectrum of BSA and the absorption spectrum of DPPCAH (or DPPCAH-Cu) as shown in Figure 6a (or Figure 6b) after normalization. The experimental value for the efficiency to be used in Equation (4) was estimated by measuring the fluorescence at equal protein-ligand concentration as described in [27].
Absorbance spectrum of DPPCAH and DPPCAH-Cu were recorded on a UV-2450 spectrophotometer (Shimadzu (Suzhou) Co. Ltd., Suzhou, China) within the UV region in the range of 300 to 450 nm. Final concentrations of the agents concentration used for measurements were 10 μM (in Tris-HCl buffer, pH 7.2).
(§1) For the fluorescence spectra, the excitation wavelength was set at 280 nm and the emission spectra were recorded in the range of 300 to 450 nm. Both excitation and emission slit widths were adjusted to 5 nm. In this assay, 4.0 mL of BSA solution at a fixed concentration of 10 × 10^−5 M was accurately added into the quartz cell (1 cm path length), and was manually titrated by successive additions of 10 mM DPPCAH (or DPPCAH-Cu) at intervals of 5 min. Fluorescence emission spectra were then measured on a RF-5301 Spectrofluorophotometer (Shimadzu Scientific Instruments, Kyoto, Japan) at three different temperatures (288, 303, and 310 K). In order to calculate the peak area, the integration of spectra was done in the range of 300 to 450 nm. Synchronous fluorescence spectra were recorded by simultaneously scanning the excitation and emission monochromators, in which a constant wavelength interval was maintained between them. The wavelength interval (Δλ = λem − λex) was fixed individually at 60 nm, at which characteristic information of pertaining to Trp residues was obtained.

[2] = test system: HepG2 cells; assay: MTT cytotoxicity assay in the absence or presence of BSA; type: cell-based; conditions: agent-BSA 1:1, medium without FCS, 8 h incubation
Method: It has been reported that HSA could enhance the anti-proliferative activity of Dp44mT [13]. Thus, we examined the effect of BSA on both DPPCAH- and DPPCAH-Cu-mediated inhibition of HepG2 cells in which BSA was the main protein source in the cell culture.
Figure 1 Inhibition of proliferation of HepG2 cells by DPPCAH and DPPCAH-Cu in the absence or presence of BSA. Dpp = DPPCAH; * p < 0.01 (t-test).
A stock solution of DPPCAH (10 mM) was prepared in 80% DMSO, and was diluted to the required concentration with culture medium when used. The DPPCAH-Cu was prepared by mixing highly concentrated copper chloride with DPPCAH based on 1:1 molar ratio, and diluted to the required concentration with water. BSA was dissolved in PBS and was sterilized by filter sterilization method. HepG2 cells were cultured in RPMI-1640 medium supplemented with 10% fetal calf serum (FCS) and antibiotics. The cells collected in the exponential-phase (5 × 10^3 /mL) were seeded equivalently into a 96-well plate, followed by 6 h of incubation. […] The plate was read using a microplate reader (MK3; Thermo Fisher Scientific (Shanghai) Co. LTD, Shanghai, China) at 570 nm and the measurement of absorbance represented an estimate of the number of viable cells. Percent growth inhibition was defined as percent absorbance inhibition within appropriate absorbance in each cell line. […]

[3] = biological target: T1, BSA; assay: Synchronous fluorescence spectra of BSA (Δλ = 60 nm); type: binding, bovine; conditions: CBSA = 10.0 μM, 288 K
Method: The bathochromic (or […]) shift noticed during fluorescence titration of BSA with the reagents, implied potent changes in the environment of Trp residues. To confirm these environmental changes, synchronous fluorescence spectra were recorded, because this technique yields information pertaining to the change in the polarity of the microregion near fluorophore molecules. By using different D-value (Δλ) between the excitation and emission wavelength, fluorescence contributors from different aromatic amino acids in the protein can be identified. When Δλ is stabilized at 60 nm, synchronous fluorescence spectroscopy provides the characteristic information specific to Trp residues. […] Although DPPCAH and DPPCAH-Cu could bind BSA, they induced different effects in BSA.
as §1, with “In this assay, 4.0 mL of BSA solution at a fixed concentration of 10 × 10^−5 M was accurately added into the quartz cell (1 cm path length), and was manually titrated by successive additions of 10 mM DPPCAH (or DPPCAH-Cu) at intervals of 5 min.” left out

[4] = biological target: T1, BSA; assay: Fluorescence quenching of BSA (Stern-Volmer, binding constants, van't Hoff thermodynamics); parameters: species or system bovine; conditions: for number of binding sites n per BSA / Ksv (Stern-Volmer dynamic quenching constant) / ΔH of binding to BSA / ΔS of binding to BSA / ΔG of binding to BSA: pH 7.2; for Kq (quenching rate constant of biomolecule): calculated from Ksv with τ0 = 10^−8 s; for shift of BSA fluorescence emission upon addition of the agent: fluorescence titration, CBSA = 1.0 × 10^−5 M, pH 7.2, 288 K; for ΔH of binding to BSA / ΔS of binding to BSA: van't Hoff plot; for ΔG of binding to BSA: ΔG = ΔH − TΔS
Method: To investigate the possible mechanism responsible for fluorescence quenching, Stern–Volmer plots were used to interpret the spectral data. The procedure of fluorescence quenching was first assumed a dynamic quenching process. The dynamic quenching constant Ksv and the apparent biomolecular quenching rate constant Kq were calculated using the Stern–Volmer equation: (1) F0/F=1+Ksv[Q]=1+Kqτ0[Q] where, F0 and F are the steady-state fluorescence intensities in the absence and presence of a quencher, respectively; [Q] is the concentration of the quencher; Ksv is the Stern–Volmer dynamic quenching rate constant; τ0 is the fluorescence lifetime of the protein without the quencher, the average life of a fluorescence molecule is 10^−8 s; and Kq is the quenching rate constant of biomolecule. […] To distinguish the quenching model, additional experiments were conducted at different temperatures, as dynamic and static quenching have different temperature dependencies. With an increase in temperature, the Ksv values decrease for static quenching, and increase for dynamic quenching. […] Kq values calculated for DPPCAH and DPPCAH-Cu ranged from 5 × 10^12~7 × 10^12, and >2 × 10^10 L·mol^−1·s^−1, respectively, which further supported the static quenching model.
For the static quenching model, important binding parameters including association constant (Ka) and number of binding sites (n) were calculated from the plots using the equation: (2) log(F0−F/F0)=log Ka+nlog[Q] where, Ka is the binding constant, and n is the number of binding sites per BSA. Ka and n were obtained from the intercept and slope of the curve. […] The number of binding sites n was 1.0418 for DPPCAH and 1.1053 for DPPCAH-Cu, or approximately 1. Thus, the association of one molecule of quencher with one molecule of protein was confirmed. […] Similar results were reported from studies analyzing interaction of eupatorin with BSA [17].
The interaction of small molecules with biomacromolecule involves hydrogen bonds, electrostatic interactions, van der Waals, and hydrophobic forces. In the present study, the nature of the interaction involved in binding was determined based on thermodynamic parameters, namely, ΔH > 0 and ΔS > 0 would imply a hydrophobic interaction, ΔH < 0 and ΔS < 0 hint imply hydrogen bonding and van der Waals interactions, and ΔH< 0 and ΔS > 0 imply electrostatic force interactions. The thermodynamic parameters were obtained using the van’t Hoff Equation (3): (3) lnK=−ΔH/RT+ΔS/R where, K is the binding constant; T is the absolute temperature; and R is the universal gas constant. ΔH and ΔS were obtained from the slope and intercept of the linear van’t Hoff plot (shown in Figure 5). The free energy change (ΔG) was estimated using the following formula: ΔG = ΔH − TΔS
as §1, with “In this assay, 4.0 mL of BSA solution at a fixed concentration of 10 × 10^−5 M was accurately added into the quartz cell (1 cm path length), and was manually titrated by successive additions of 10 mM DPPCAH (or DPPCAH-Cu) at intervals of 5 min.” left out

[5] = test system: HepG2 cells; parameters: method as in PMID 26398524; conditions: cited from earlier work
[6] = biological target: T1, BSA; assay: Circular dichroism spectra of BSA, secondary structure simulated with K2D2; parameters: species or system bovine; conditions: molar ratio drug/protein = 2; CBSA = 15 μM; K2D2 simulation of CD data
Method: A direct calculation of secondary structures using experimental data was employed, but owing to the larger errors, the K2D2 software was used to simulate the experimental data of CD in the present study. The simulated curves are represented in the Supplementary Materials (Figure S1). In the absence of DPPCAH, the α-helix and β-sheet of BSA were 52% and 8.29% respectively.
BSA CD spectra in the range of 190–250 nm were recorded on a Chirascan (Applied Photophysics Ltd., Surrey, UK) with a 1.0 cm quartz cell in nitrogen atmosphere. BSA CD measurements in the presence and absence of DPPCAH (or DPPCAH-Cu) were performed with a scan rate of 50 nm/min. The A stock solution of 1.5 × 10^−5 M BSA was prepared in PBS. A 10 mM stock solution of DPPCAH was prepared in DMSO and the stock solution was diluted to 1.5 mM with water for measurements. Similarly, a solution of DPPCAH-Cu was prepared by mixing the DPPCAH solution with higher concentration of CuCl2 in water. The BSA concentration was held constant, while the DPPCAH concentration was varied (0, 1.5, 3.0 × 10^−5 M). The final concentration of DMSO in the measurements was less 0.5%. The buffer solution was chosen as the blank, and was manually subtracted from each spectrum during scanning. Each sample was scanned three times and the average was recorded for the CD spectrum.

[7] = 303 K (first value of the printed decrease with increasing temperature)
[8] = 310 K (second value of the printed decrease with increasing temperature)

T1 sequence (P02769 25-607): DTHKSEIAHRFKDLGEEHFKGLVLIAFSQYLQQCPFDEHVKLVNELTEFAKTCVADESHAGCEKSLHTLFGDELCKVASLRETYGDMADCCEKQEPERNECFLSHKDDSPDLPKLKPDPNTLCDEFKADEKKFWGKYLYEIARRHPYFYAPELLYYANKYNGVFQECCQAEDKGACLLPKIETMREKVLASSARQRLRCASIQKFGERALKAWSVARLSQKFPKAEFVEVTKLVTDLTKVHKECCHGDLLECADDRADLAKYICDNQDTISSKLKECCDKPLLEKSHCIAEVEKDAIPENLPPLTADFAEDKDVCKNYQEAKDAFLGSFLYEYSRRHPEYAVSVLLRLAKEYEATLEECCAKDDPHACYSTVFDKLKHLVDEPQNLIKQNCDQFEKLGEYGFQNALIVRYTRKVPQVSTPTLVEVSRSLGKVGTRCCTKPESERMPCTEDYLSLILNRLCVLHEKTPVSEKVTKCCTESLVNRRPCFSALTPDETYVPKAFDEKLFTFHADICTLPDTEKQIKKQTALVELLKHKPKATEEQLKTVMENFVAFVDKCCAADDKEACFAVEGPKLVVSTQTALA

Row | Molecule | r (distance from bound agent to Trp-213 residue of BSA) [1] | R0 (critical distance at 50% energy transfer efficiency) [1] | decrease of fluorescence intensity of Trp residue [3] | shift of maximum emission wavelength of Trp in synchronous fluorescence [3] | number of binding sites n per BSA ([4]; 288 K, CBSA = 10 μM) | Ksv (Stern-Volmer dynamic quenching constant) [4, 7] | Ksv (Stern-Volmer dynamic quenching constant) [4, 8] | Kq (quenching rate constant of biomolecule) [4] | shift of BSA fluorescence emission upon addition of the agent [4] | ΔH of binding to BSA ([4]; 288 K) | ΔS of binding to BSA ([4]; 288 K) | ΔG of binding to BSA ([4]; 288 K) | further results
1 | O=C(NN=C(c1ccccn1)c1ccccn1)c1ccccn1 [DPPCAH, di-2-pyridylketone-2-pyridine carboxylic acid hydrazone] | 2.03 nm | 2.35 nm | 55% | significant red shift | 1.0418 | 7.0 × 10^4 | 5.08 × 10^4 | 5 × 10^12~7 × 10^12 L·mol^−1·s^−1 | bathochromic red shift | -11.23 kcal/mol | −60.0 J/mol·K | -7.096 kcal/mol | effect of BSA on growth inhibition of HepG2 cells mediated by the agent [2]: attenuated the growth inhibition; IC50 ([5]; read-out: IC50, growth inhibition of HepG2 cells): 4.6 ± 0.2 µM
2 | Copper complex of di-2-pyridylketone 2-pyridinecarboxylic acid hydrazone [DPPCAH-Cu] | 2.32 nm | 2.7 nm | 50% | blue shift | 1.1053 | 5.47 × 10^4 | 4.9 × 10^4 | > 2e+10 L/mol/s | blue shift | -9.218 kcal/mol | −41.5 J/mol·K | -6.36 kcal/mol | R0 (critical distance at 50% energy transfer efficiency) ([1]; listed as BSA-DPPCAH-Cu): 2.70 nm; J (spectral overlap of BSA emission and agent absorption) ([1]; calculated from spectra): 1.7e-14 cm^3·L·mol^-1; decrease in α-helix of BSA [6]: 3.5%; increase in β-sheet of BSA [6]: 1.45%; Ka (association constant with BSA) ([4]; 288 K, CBSA = 10 μM, pH 7.2 (10 mM Tris-HCl)): 6.56 ×10^4; binding energy obtained from fluorescence quenching ([4]; at 288 K, quoted for comparison with docking): -7.1 kcal/mol; antitumor activity compared with DPPCAH [5]: significantly enhanced the antitumor activity
